The values below come from paper PMC6382696, “Drug Repurposing: The Anthelmintics Niclosamide and Nitazoxanide Are Potent TMEM16A Antagonists That Fully Bronchodilate Airways” (Frontiers in Pharmacology, 2019).

Usually pIC50 stands for the IC50 on a negative log10 scale, so that one unit is a factor of ten. For orientation: pEC50 means −log10 of the EC50, conventionally taken in molar units.

Assay [1] deals with T1, human CFTR (Homo sapiens, UniProt P13569).
T1 construct: host or cells: CHO
Put plainly: IonWorks Barracuda electrophysiology, CFTR chloride current in CHO cells. Type of assay: cell-based. Conditions: for effect on CFTR chloride current: 10 µM compound, CHO CFTR. The source says:
HEK293 cells stably expressing the human TMEM16A (abc) variant and CHO cells expressing the human CFTR gene were from ChanTest. The IonWorks Barracuda (IWB) procedure and data provided are from outsourced studies performed at ChanTest (Charles River Discovery, Cleveland, OH, United States) who were blinded as to the identity of the test articles or compounds provided by Amgen.
For measuring compound effects on CFTR chloride currents, compounds were serially diluted in HEPES-buffered physiological saline to 2X final concentration allowing for an 8-point dose-response analysis. Test article concentrations were applied to naïve cells (n = 4, where n = the number of replicate wells/concentration) via steel needles, where each application will consist of addition of 20 μl of 2X concentrated test article solution to a final 40 μl volume in the extracellular well of the Population Patch ClampTM (PPC) planar electrode. After mixing (three times), duration of exposure to compound is at least 5 min. Final solutions contain 0.3% DMSO. […] The current is measured using a pulse pattern consisting of a voltage step to +60 mV, 100 ms duration; voltage ramp from +60 to −120 mV, 1000 ms; step to −120 mV, 200 ms; and step to 0 mV, 200 ms; from holding potential, −30 mV. Current amplitudes were measured at the voltage step to 0 mV. The recording procedure was as follows: extracellular buffer is loaded into the PPC plate wells (11 μl per well). Cell suspension was pipetted into the wells (9 μl per well) of the PPC planar electrode. After establishment of a whole-cell configuration via amphotericin patch perforation similar to that described earlier, membrane currents were recorded using the patch clamp amplifier in the IonWorks^TM Barracuda system. Two recordings (scans) were then performed, one scan before and a second scan 5 min after test article (TA) application. […] Data acquisition and analyses were performed using the IonWorks Barracuda^TM system operation software (version 2.0.2). The decrease in current amplitude after test article application was used to calculate the percent block relative to control. […] Inhibition effect was calculated as: % Inhibition = (1 – ITA/IBaseline) × 100%, where IBaseline and ITA were the currents measured in control (before addition of a test article) and in the presence of a test article, respectively.

Assay [2] has as its system human bronchial rings. As to the kind of experiment: Wire myograph bronchodilation of histamine pre-contracted human bronchial rings (Biopta). The text has this: Details of bronchodilator studies shown in Figure 5H, 6 and Supplementary Figure 40 are provided below as part of the end assay report on Study CUR011 by Lee Christie (Biopta). Donors with any of the following conditions were excluded from the study: asthma, COPD, emphysema, lung cancer, cystic fibrosis, pulmonary fibrosis, pulmonary hypertension, pneumonia. Donors were also excluded if they had smoked in the past 12 months. Non-transplantable lung tissue was acquired from organ donors post mortem. Any macroscopically diseased/necrotic tissue was rejected. […] Human airway rings were set up under isometric conditions on a wire myograph in order to examine the influence of the test articles on bronchodilation. In order to assess tissue viability, the airways were challenged with carbachol (10 μM) and then isoprenaline (10 μM) to assess their constriction and relaxation responses, respectively. […] Viable airways were pre-constricted with histamine (10 μM), then exposed to one of the following cumulative concentration response curves (CCRCs): positive control, vehicle (water, volume matched to positive control), test article, vehicle (DMSO concentration matched to test articles). At the end of each CCRC, theophylline (2.2 mM) was added to induce maximal relaxation of the tissue. […] Airways were re-tensioned to 1.0 – 1.5 g if the tension had dropped below 1.0 g during the first 30 min of equilibration. (b) Airways were exposed to carbachol (bath concentration 10 μM) in order to measure their contractile responses and then isoprenaline (10 μM) in order to assess their relaxation. Airways were washed out and allowed to return to baseline. (c) Airways were pre-constricted with histamine (10 μM) before conducting a CCRC to the test article, the positive control (isoprenaline), test article vehicle or positive control vehicle.

The mark [3] stands for this setting: 20 μM forskolin, IonWorks Barracuda, read-out: CFTR Chloride Current (IC50).
Where [4] appears, read: Homo sapiens, 10 μM histamine, read-out: EC50 bronchodilating histamine precontracted human airways.
Where [5] appears, read: histamine pre-contracted, 10 μM.

pEC50, pIC50: −log10 of the molar value. “And” between values parts separate entries of the source, which are not always exact repeats. Equal entries are not always repeated. Where two headings read alike, the source gives them in different places. Where only a bound is given, the exact number is not on record here.

T1 sequence (P13569 whole entry): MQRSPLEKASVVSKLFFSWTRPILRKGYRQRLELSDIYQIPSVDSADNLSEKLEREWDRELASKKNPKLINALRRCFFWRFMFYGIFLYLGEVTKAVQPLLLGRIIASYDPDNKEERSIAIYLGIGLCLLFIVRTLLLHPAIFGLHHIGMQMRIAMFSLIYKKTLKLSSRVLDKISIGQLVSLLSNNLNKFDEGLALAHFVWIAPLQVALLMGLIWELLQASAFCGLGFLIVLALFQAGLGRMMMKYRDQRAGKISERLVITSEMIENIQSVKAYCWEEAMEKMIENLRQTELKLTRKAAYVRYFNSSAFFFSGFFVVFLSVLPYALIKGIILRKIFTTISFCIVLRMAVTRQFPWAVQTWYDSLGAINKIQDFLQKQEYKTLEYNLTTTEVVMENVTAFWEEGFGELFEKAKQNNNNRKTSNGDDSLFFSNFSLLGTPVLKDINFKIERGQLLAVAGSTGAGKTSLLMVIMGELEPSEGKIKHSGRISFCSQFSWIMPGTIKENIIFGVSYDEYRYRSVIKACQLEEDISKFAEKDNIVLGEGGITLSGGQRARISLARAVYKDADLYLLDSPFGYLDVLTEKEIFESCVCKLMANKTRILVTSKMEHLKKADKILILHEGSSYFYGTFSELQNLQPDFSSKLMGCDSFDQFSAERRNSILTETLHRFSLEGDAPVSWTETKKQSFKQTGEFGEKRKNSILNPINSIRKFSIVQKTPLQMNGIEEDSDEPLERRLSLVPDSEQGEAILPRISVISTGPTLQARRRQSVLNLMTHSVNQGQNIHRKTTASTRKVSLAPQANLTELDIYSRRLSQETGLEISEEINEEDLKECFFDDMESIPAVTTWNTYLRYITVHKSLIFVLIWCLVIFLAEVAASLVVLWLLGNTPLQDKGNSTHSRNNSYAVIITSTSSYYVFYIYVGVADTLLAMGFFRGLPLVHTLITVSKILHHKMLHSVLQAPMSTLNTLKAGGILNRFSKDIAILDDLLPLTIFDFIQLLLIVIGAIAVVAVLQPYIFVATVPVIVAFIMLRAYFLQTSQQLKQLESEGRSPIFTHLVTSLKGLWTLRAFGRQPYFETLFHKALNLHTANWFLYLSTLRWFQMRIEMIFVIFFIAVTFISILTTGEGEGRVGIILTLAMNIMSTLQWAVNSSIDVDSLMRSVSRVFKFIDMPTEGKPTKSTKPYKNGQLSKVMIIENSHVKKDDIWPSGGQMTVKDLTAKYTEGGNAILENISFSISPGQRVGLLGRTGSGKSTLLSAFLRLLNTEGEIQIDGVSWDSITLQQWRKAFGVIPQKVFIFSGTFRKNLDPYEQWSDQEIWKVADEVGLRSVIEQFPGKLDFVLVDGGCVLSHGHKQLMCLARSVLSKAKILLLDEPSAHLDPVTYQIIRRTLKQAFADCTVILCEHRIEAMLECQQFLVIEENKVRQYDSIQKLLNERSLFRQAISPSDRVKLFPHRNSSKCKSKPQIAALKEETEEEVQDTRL

Take `N#Cc1c(C(F)(F)F)cc(O)n2c1nc1ccccc12` [1PBC]: the pIC50 in assay [1] (setting [3]) is under 4.52. Further, the “effect on cAMP-induced CFTR chloride current” value in assay [1] (IonWorks Barracuda) was “inactive”.
For `CCc1oc2ccccc2c1C(=O)c1cc(Br)c(O)c(Br)c1` [Benzbromarone], in assay [1], the pIC50 is 5.28. In assay [1] (IonWorks Barracuda), the “effect on cAMP-induced CFTR chloride current” value is “reduced”. Also, in assay [2] (setting [4]), the negative logarithm of the EC50 (pEC50) was 5.25. In addition, the “time to steady-state relaxation of human bronchial rings” value (“time to steady-state relaxation” below) in assay [2] (setting [5]) is 80 to 140 min.
Regarding `CC(C)(C)C1CCc2c(sc(NC(=O)c3ccco3)c2C(=O)O)C1` (centres unmarked) [CaCCinh-A01], in assay [1] (setting [3]), the pIC50 is 5.00. Also, the “effect on cAMP-induced CFTR chloride current” value in assay [1] (IonWorks Barracuda) is reported as “reduced”.
For `O=C(Nc1ccc([N+](=O)[O-])cc1)c1cc(Cl)ccc1O` [Cpd 2], in assay [1], the “percent of inhibition (POI) of the forskolin-induced CFTR current” value (“percent of inhibition” for short) is under 20%. Also, the “effect on cAMP-induced CFTR chloride current” value in assay [1] (IonWorks Barracuda) was “inactive”.
As for `COc1cc([N+](=O)[O-])ccc1NC(=O)c1cc(Cl)c2ccccc2c1O` [Cpd 4], in assay [1], the “percent of inhibition” value was under 20% and the “effect on CFTR chloride current” value is “no significant effects”. The pIC50 in assay [1] (setting [3]) is under 4.52. The “effect on cAMP-induced CFTR chloride current” value in assay [1] (IonWorks Barracuda) is “inactive”. The pEC50 in assay [2] (setting [4]) was 5.46. Moreover, the “time to steady-state relaxation” value in assay [2] (setting [5]) is 50 − 125 min. In addition, the pEC50 in assay [2] (histamine pre-contracted, Donor 1 Ring 1, Donor 1 Ring 2, Donor 2 Ring 1, read-out: EC50 relaxation of human bronchial rings, individual rings) was ~5.76 and ~5.20 and 5.52.
Regarding `COc1cc(Nc2ccc([N+](=O)[O-])cc2C(=O)O)cc2ccccc12` [MONNA], the pIC50 in assay [1] (setting [3]) is 4.72. For the same molecule, the “effect on cAMP-induced CFTR chloride current” value in assay [1] (IonWorks Barracuda) was “reduced”.
Regarding `O=C(Nc1ccc([N+](=O)[O-])cc1Cl)c1cc(Cl)ccc1O` [Niclosamide], in assay [1], the “percent of inhibition” value was under 20%. The “effect on CFTR chloride current” value in assay [1] is recorded as “no significant effects”. The negative logarithm of the IC50 (pIC50) in assay [1] (setting [3]) was under 4.52. The “effect on cAMP-induced CFTR chloride current” value in assay [1] (IonWorks Barracuda) is “inactive”. Further, the pEC50 in assay [2] (10 μM histamine, read-out: EC50 bronchodilating histamine precontracted human airways) is 6.01; in assay [2] (setting [4]), 6.01. Also, the “time to steady-state relaxation” value in assay [2] (histamine pre-contracted, 1 μM) is given as about 92 min; in assay [2] (setting [5]), about 50 min.
`O=C(O)c1cccnc1Nc1cccc(C(F)(F)F)c1` [Niflumic Acid]: in assay [1] (setting [3]), the pIC50 is under 4.52.
On the same count and under the same terms, next, `CCc1c(C)nc(SCC(=O)Nc2nc(-c3ccc(OC)cc3)cs2)[nH]c1=O` [T16Ainh-A01]: under 4.52.
